Results published in patent EP2119770B1, “Production of alpha-oxyfunctionalized carbonyl compounds” (priority 2008, dated 2009).

Experiments:
Format in all cases: biochemical
Gox1615 = target: T1, Gox1615 (Gluconobacter oxydans, UniProt Q5FQJ0); test: Enzyme activity assay (rate of NAD(P)H decrease at 340 nm), Gox1615; settings: Tab. 5, Gox1615; cofactor NADPH; 10 mM substrate, pH 7.0, 30 °C
T1 sequence (Q5FQJ0 1-332): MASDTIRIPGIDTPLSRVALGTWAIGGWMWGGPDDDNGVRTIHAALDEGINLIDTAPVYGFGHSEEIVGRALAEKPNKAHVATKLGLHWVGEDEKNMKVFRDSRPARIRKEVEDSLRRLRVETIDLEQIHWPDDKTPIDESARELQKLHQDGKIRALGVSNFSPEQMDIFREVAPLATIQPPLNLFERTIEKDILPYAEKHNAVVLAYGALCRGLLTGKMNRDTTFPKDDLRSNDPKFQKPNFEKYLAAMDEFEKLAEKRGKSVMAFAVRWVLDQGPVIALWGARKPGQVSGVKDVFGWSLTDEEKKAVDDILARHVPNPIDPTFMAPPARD
Procedure: (§1) Measurment of enzyme activity: NADPH-dependent alpha-ketocarbonyl reductases were assayed by a routine method used for NAD(P)-linked enzymes by recording the rate of decrease of NADPH at 340 nm (ε = 6.22 mM^-1 x cm^-1)) with substrates at 30 °C. The reaction mixture (1 ml) for reduction of alpha-ketocarbonyl substrates contained 10 mM substrate, 40 mM potassium phosphate buffer pH 7.0, 0.025 mM NAD(P)H , and the enzyme. Reactions were induced by addition of enzyme or substrate. One unit of enzyme activity was defined as the amount of enzyme catalyzing the conversion of 1 µmol of pyridine nucleotide per min at 30 °C.
(§2) NADPH-dependent α-ketocarbonyl reductases were assayed by a routine method used for NAD(P)-linked enzymes by recording the rate of decrease of NADPH at 340 nm (ε = 6.22 mM^-1.cm^-1) with substrates at 30 °C. The reaction mixture (1 ml) for reduction of alpha-ketocarbonyl substrates contained 10 mM substrate, 40 mM potassium phosphate buffer pH 7.0, 0.025 mM NADPH , and the enzyme. Reactions were induced by addition of enzyme or substrate. One unit of enzyme activity was defined as the amount of enzyme catalyzing the conversion of 1 µmol of pyridine nucleotide per min at 30 °C.
(§3) For each enzyme (Gox0313, Gox0502, Gox0644, Gox0646, Gox1615, Gox2107, and Gox2684 respectively), fresh enzyme preparations were used to validate the substrate spectrum and the kinetic activity. […] Purified NAD(P)-dependent oxidoreductases were assayed at 30 °C by a routine method used for NAD(P)-linked enzymes by recording the rate of decrease of NAD(P)H at 340 nm (ε = […]) with substrates capable of reduction reactions. The standard reaction mixture (1 ml) for the reduction reactions of substrates contained 10 mM substrate, 40 mM potassium phosphate buffer (K-phosphate buffer) pH 7.0, 0.05 mM NAD(P)H, and the enzyme unless otherwise noted. Reactions were induced by addition of enzyme or substrate. One unit of enzyme activity was defined as the amount of enzyme catalyzing the conversion of 1 µmol of pyridine nucleotide per min at 30 °C. Measurement of the protein content was performed by the method of Bradford in Anal. Biochem. 72:248-254 (1976). Table 3: Summary of enzymatic activities with α-diketones, α-ketoaldehydes and /or α-ketoesters

Gox0644 = Gox0644 (Gluconobacter oxydans, UniProt Q5FT75); test: Enzyme activity assay (rate of NAD(P)H decrease at 340 nm), Gox0644; settings: for Specific Activity: Tab. 4, Gox0644, cofactor NADPH, 10 mM substrate, pH 7.0, 30 °C; for reduction by Gox0644 (result in words): NADPH
Procedure: (§4) Reactions were induced by addition of enzyme or substrate. One unit of enzyme activity was defined as the amount of enzyme catalyzing the conversion of 1 µmol of pyridine nucleotide per min at 30 °C.
as §4
For each enzyme (Gox0313, Gox0502, Gox0644, Gox0646, Gox1615, Gox2107, and Gox2684 respectively), fresh enzyme preparations were used to validate the substrate spectrum and the kinetic activity. […] Reactions were induced by addition of enzyme or substrate. One unit of enzyme activity was defined as the amount of enzyme catalyzing the conversion of 1 µmol of pyridine nucleotide per min at 30 °C. […] Table 3: Summary of enzymatic activities with α-diketones, α-ketoaldehydes and /or α-ketoesters

Gox0502 = target: T2, Gox0502 (Gluconobacter oxydans, UniProt Q5FTL6); test: Enzyme activity assay (rate of NAD(P)H decrease at 340 nm), Gox0502; design: Strep-tag II (N); made in house; host or cells: E. coli BL21 or E. coli DH5α (pASK-IBA5); settings: Tab. 7, Gox0502; cofactor NADPH; 10 mM substrate, pH 7.0, 30 °C
T2 sequence (Q5FTL6 1-361): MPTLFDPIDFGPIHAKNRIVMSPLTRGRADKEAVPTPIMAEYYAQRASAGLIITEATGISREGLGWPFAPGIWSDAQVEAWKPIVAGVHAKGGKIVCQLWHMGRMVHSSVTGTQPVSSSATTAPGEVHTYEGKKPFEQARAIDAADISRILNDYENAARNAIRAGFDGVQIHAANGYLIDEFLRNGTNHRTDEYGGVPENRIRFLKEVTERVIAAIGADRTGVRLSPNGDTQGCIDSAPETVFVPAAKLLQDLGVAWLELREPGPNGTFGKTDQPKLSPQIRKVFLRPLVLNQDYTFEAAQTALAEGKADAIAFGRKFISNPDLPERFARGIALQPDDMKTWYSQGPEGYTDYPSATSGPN
Procedure: as §1, §2, §3

Gox2684 = target: T3, Gox2684 (Gluconobacter oxydans, UniProt Q5HXK5); test: Enzyme activity assay (rate of NAD(P)H decrease at 340 nm), Gox2684; settings: Tab. 8, GOX2684; cofactor NADPH; 10 mM substrate, pH 7.0, 30 °C
T3 sequence (Q5HXK5 1-357): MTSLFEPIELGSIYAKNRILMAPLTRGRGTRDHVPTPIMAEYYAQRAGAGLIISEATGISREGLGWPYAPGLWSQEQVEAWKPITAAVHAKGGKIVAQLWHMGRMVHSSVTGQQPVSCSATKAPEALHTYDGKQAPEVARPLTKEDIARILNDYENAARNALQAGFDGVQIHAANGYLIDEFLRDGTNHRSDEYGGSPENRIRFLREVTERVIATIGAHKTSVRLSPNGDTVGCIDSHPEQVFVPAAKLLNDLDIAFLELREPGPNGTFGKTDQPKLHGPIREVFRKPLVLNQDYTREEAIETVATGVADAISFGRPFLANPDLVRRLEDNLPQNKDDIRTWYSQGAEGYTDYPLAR
Procedure: as §1, §2, §3

Gox2107 = Gox2107 (Gluconobacter oxydans, UniProt Q5FP53); test: Enzyme activity assay (rate of NAD(P)H decrease at 340 nm), Gox2107; settings: Tab. 7, Gox2107; cofactor NADPH; 10 mM substrate, pH 7.0, 30 °C
Procedure: as §1, §2, §3

Gox0313 = target: T4, Gox0313 (Gluconobacter oxydans, UniProt Q5FU50); test: Enzyme activity assay (rate of NAD(P)H decrease at 340 nm), Gox0313; settings: Tab. 6, Gox0313; substrate reduction, cofactor NADH; 10 mM substrate, pH 7.0, 30 °C
T4 sequence (Q5FU50 1-343): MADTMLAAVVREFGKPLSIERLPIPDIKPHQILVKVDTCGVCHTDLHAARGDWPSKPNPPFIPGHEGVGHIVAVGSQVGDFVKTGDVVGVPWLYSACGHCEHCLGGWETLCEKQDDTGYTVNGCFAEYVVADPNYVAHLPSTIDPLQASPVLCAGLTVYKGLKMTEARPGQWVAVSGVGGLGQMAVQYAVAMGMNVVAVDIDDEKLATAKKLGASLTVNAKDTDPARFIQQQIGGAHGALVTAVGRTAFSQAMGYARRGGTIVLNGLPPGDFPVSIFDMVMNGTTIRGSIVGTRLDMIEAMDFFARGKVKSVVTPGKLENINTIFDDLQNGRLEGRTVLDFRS
Procedure: as §1, §2, §3

| Compound | Specific Activity (Gox1615) | Specific Activity (Gox0313) | also measured |
| --- | --- | --- | --- |
| CC(=O)C=CC(C)C [5-methyl-3-hexen-2-one] | 0.3 U/mg |  |  |
| CC(C)CC=O [isovaleraldehyde] | 12 U/mg |  |  |
| O=CC=O [glyoxal] | 5 U/mg |  | Specific Activity (Gox0644): 1.1 U/mg |
| Cc1cccc(C=O)c1 [m-toluylaldehyde] | 1.5 U/mg |  |  |
| O=C1C=C(O)C(=O)c2ccccc21 [2-hydroxy-1,4-naphthoquinone] |  |  | Specific Activity (Gox0502): 0.75 U/mg; Specific Activities (Gox2684): 0.7 U/mg; Specific Activity (Gox2107): 16.04 U/mg |
| CCCCCCCCCCCC=O [dodecanal] | 15.6 U/mg | 2.4 U/mg |  |
| O=CC(=O)O [glyoxalate] |  |  | Specific Activity (Gox0644): 1.2 U/mg |
| O=CCCCC=O [glutaraldehyde] | 13.5 U/mg |  |  |
| N#CC1=C(C#N)C(=O)C(Cl)=C(Cl)C1=O [DDQ] |  |  | Specific Activity (Gox0502): < 0.1 U/mg; Specific Activity (Gox2107): 26.5 U/mg |
| CCCCCCC=O [heptanal] | 15.5 U/mg | 8.6 U/mg |  |
| CCCCCCCCCC=O [decanal] | 10.5 U/mg | 18.8 U/mg |  |
| CC(=O)C(C)O (stereo not drawn) [acetoin] |  | 10.5 U/mg | reduction by Gox0644 (result in words) (Gox0644): not reduced |
| Cc1ccccc1C=O [o-toluylaldehyde] | 0.8 U/mg |  |  |
| O=CCO [glycolaldehyde] | 4.1 U/mg | 37.5 U/mg |  |
| CC(C)=O [acetone] |  |  | reduction by Gox0644 (result in words) (Gox0644): not reduced |
| O=Cc1ccccc1 [benzaldehyde] | 12.2 U/mg | 9.4 U/mg |  |
| O=CCc1ccccc1 [phenylacetaldehyde] | 6.5 U/mg |  |  |
| glucose |  | 4.7 U/mg |  |
| CC=O [acetaldehyde] |  | 61.0 U/mg |  |
| mannose |  | 9.7 U/mg |  |
